According to patent US7435837B2, “Dihydrobenzofuranyl alkanamine derivatives and methods for using same” (Wyeth, priority 2003, dated 2008):
pEC50: −log10 of the molar value.

Target: T1, human 5-HT2C receptor (Homo sapiens, UniProt P28335)
T1 sequence (P28335 33-458): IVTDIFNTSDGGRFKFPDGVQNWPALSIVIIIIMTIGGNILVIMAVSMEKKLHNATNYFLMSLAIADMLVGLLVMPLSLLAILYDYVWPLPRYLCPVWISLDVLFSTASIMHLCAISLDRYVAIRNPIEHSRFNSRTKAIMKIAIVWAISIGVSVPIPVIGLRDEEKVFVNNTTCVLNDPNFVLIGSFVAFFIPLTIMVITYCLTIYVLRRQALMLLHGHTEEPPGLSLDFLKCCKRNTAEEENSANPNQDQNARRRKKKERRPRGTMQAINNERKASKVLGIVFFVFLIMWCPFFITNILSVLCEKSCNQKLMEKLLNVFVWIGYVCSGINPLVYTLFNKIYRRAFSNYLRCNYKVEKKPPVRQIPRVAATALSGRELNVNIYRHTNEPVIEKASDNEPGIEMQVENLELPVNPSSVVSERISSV
Assay: 5-HT2C receptor-stimulated calcium mobilization (FLIPR) in CHO cells;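 also: Fluo-3-AM fluorescence read on FLIPR every 1 s, agonist added after 10 baseline reads, response taken as peak minus lowest raw fluorescence count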
Type: cell-based
Conditions: for Emax: CHO, read-out: 5-HT2C Function Emax (%); for pEC50: calcium mobilization, CHO cells stably expressing human 5-HT2C, read-out: 5-HT2C Function EC50

[1] = percentage of the response observed with a maximally effective concentration of 5-HT

SMILES	Emax [1] [%]	pEC50	5-HT2C Function Emax (%) [1] [%]
Cc1cccc(-c2cccc3c2OC(CN)C3)c1C (racemic) [Example 154, (±)-1-[7-(2,3-dimethylphenyl)-2,3-dihydro-1-benzofuran-2-yl]methanamine]	90	7.19	–
NCC1Cc2cccc(-c3cccc(F)c3F)c2O1 (racemic) [Example 160, (±)-{[7-(2,3-difluorophenyl)-2,3-dihydro-1-benzofuran-2-yl]methyl}amine]	100	7.49	–
Fc1cc2c(c(-c3c(Cl)cccc3Cl)c1)OC(CNC1CC1)C2 (racemic) [Example 231, (±)-N-{[7-(2,6-dichlorophenyl)-5-fluoro-2,3-dihydro-1-benzofuran-2-yl]methyl}cyclopropanamine]	80	9.40	–
Fc1cc2c(c(-c3c(Cl)cccc3Cl)c1)OC(CNCC1CC1)C2 (racemic) [Example 232, (±)-1-cyclopropyl-N-{[7-(2,6-dichlorophenyl)-5-fluoro-2,3-dihydro-1-benzofuran-2-yl]methyl}methanamine]	50	6.94	–
Fc1cc2c(c(-c3c(Cl)cccc3Cl)c1)OC(CNC1CCC1)C2 (racemic) [Example 233, (±)-N-{[7-(2,6-dichlorophenyl)-5-fluoro-2,3-dihydro-1-benzofuran-2-yl]methyl}cyclobutanamine]	20	6.21	–
CCNCC1Cc2cc(F)cc(-c3c(Cl)cccc3Cl)c2O1 (racemic) [Example 234, (±)-N-{[7-(2,6-dichlorophenyl)-5-fluoro-2,3-dihydro-1-benzofuran-2-yl]methyl}ethanamine]	90	7.96	–
CCCNCC1Cc2cc(F)cc(-c3c(Cl)cccc3Cl)c2O1 (racemic) [Example 235, (±)-N-{[7-(2,6-dichlorophenyl)-5-fluoro-2,3-dihydro-1-benzofuran-2-yl]methyl}propan-1-amine]	50	7.31	–
CC(C)NCC1Cc2cc(F)cc(-c3c(Cl)cccc3Cl)c2O1 (racemic) [Example 236, (±)-N-{[7-(2,6-dichlorophenyl)-5-fluoro-2,3-dihydro-1-benzofuran-2-yl]methyl}propan-2-amine]	70	6.91	–
Fc1cc2c(c(-c3c(Cl)cccc3Cl)c1)OC(CN1CCCCC1)C2 (racemic) [Example 238, (±)-1-{[7-(2,6-dichlorophenyl)-5-fluoro-2,3-dihydro-1-benzofuran-2-yl]methyl}piperidine]	40	6.28	–
Fc1cc2c(c(-c3c(Cl)cccc3Cl)c1)OC(CN1CCOCC1)C2 (racemic) [Example 239, (±)-1-{[7-(2,6-dichlorophenyl)-5-fluoro-2,3-dihydro-1-benzofuran-2-yl]methyl}morpholine]	40	5.84	–
Fc1cc2c(c(-c3c(Cl)cccc3Cl)c1)OC(CN1CCCC1)C2 (racemic) [Example 240, (±)-1-{[7-(2,6-dichlorophenyl)-5-fluoro-2,3-dihydro-1-benzofuran-2-yl]methyl}pyrrolidine]	70	7.05	–
NCC1Cc2cc(Cl)cc(-c3cccc(F)c3F)c2O1 (racemic) [Example 246, (±)-{[5-chloro-7-(2,3-difluorophenyl)-2,3-dihydro-1-benzofuran-2-yl]methyl}amine]	–	–	90
Cc1cccc(C)c1-c1cc(Cl)cc2c1OC(CNC1CC1)C2 (racemic) [Example 267, (±)-N-{[5-chloro-7-(2,6-dimethylphenyl)-2,3-dihydro-1-benzofuran-2-yl]methyl}cyclopropanamine]	80	6.14	–
Cc1cccc(C)c1-c1cc(Cl)cc2c1OC(CNCC1CC1)C2 (racemic) [Example 268, (±)-N-{[5-chloro-7-(2,6-dimethylphenyl)-2,3-dihydro-1-benzofuran-2-yl]methyl}(cyclopropylmethyl)amine]	50	6.02	–
Cc1cccc(C)c1-c1cc(Cl)cc2c1OC(CNC1CCC1)C2 (racemic) [Example 269, (±)-N-{[5-chloro-7-(2,6-dimethylphenyl)-2,3-dihydro-1-benzofuran-2-yl]methyl}cyclobutanamine]	20	5.29	–
CCNCC1Cc2cc(Cl)cc(-c3c(C)cccc3C)c2O1 (racemic) [Example 271, (±)-N-{[5-chloro-7-(2,6-dimethylphenyl)-2,3-dihydro-1-benzofuran-2-yl]methyl}ethanamine]	90	6.23	–
Cc1cccc(C)c1-c1cc(Cl)cc2c1OC(CNC(C)C)C2 (racemic) [Example 272, (±)-N-{[5-chloro-7-(2,6-dimethylphenyl)-2,3-dihydro-1-benzofuran-2-yl]methyl}propan-2-amine]	70	6.07	–
Cc1cccc(C)c1-c1cc(Cl)cc2c1OC(CN(C)C)C2 (racemic) [Example 274, (±)-{[5-chloro-7-(2,6-dimethylphenyl)-2,3-dihydro-1-benzofuran-2-yl]methyl}dimethylamine]	70	6.48	–
CCCNCC1Cc2cc(Cl)cc(-c3c(C)cccc3C)c2O1 (racemic) [Example 278, (±)-N-{[5-chloro-7-(2,6-dimethylphenyl)-2,3-dihydro-1-benzofuran-2-yl]methyl}propan-1-amine]	60	6.14	–
Cc1cccc(C)c1-c1cc(Cl)cc2c1OC(CN1CCNCC1)C2 (racemic) [Example 279, (±)-1-{[5-chloro-7-(2,6-dimethylphenyl)-2,3-dihydro-1-benzofuran-2-yl]methyl}piperazine]	70	6.81	–
Cc1cccc(C)c1-c1cc(Cl)cc2c1OC(CN1CCCC1)C2 (racemic) [Example 280, (±)-1-{[5-chloro-7-(2,6-dimethylphenyl)-2,3-dihydro-1-benzofuran-2-yl]methyl}pyrrolidine]	70	6.54	–
Clc1cccc(Cl)c1-c1cccc2c1OC(CNC1CC1)C2 (racemic) [Example 391, (±)-N-{[7-(2,6-dichlorophenyl)-2,3-dihydro-1-benzofuran-2-yl]methyl}cyclopropanamine]	80	9.70	–
CNCC1Cc2cccc(-c3cccc(C)c3C)c2O1 (racemic) [Example 422, (±)-[(N-methyl-1-[7-(2,3-dimethylphenyl)-2,3-dihydro-1-benzofuran-2-yl]methanamine]	80	6.35	–
CNCC1Cc2cccc(-c3ccc(F)cc3F)c2O1 (racemic) [Example 424, (±)-[(N-methyl-1-[7-(2,4-difluorophenyl)-2,3-dihydro-1-benzofuran-2-yl]methanamine]	90	7.31	–
CNCC1Cc2cccc(-c3ccc(Cl)cc3Cl)c2O1 (racemic) [Example 425, (±)-[(N-methyl-1-[7-(2,4-dichlorophenyl)-2,3-dihydro-1-benzofuran-2-yl]methanamine]	100	8.05	–
CNCC1Cc2cccc(-c3ccc(OC)cc3OC)c2O1 (racemic) [Example 426, (±)-[(N-methyl-1-[7-(2,4-dimethoxyphenyl)-2,3-dihydro-1-benzofuran-2-yl]methanamine]	100	7.77	–
